Legend:
Type in all cases: biochemical
[1] = molecular target: T1, PDE7A (Homo sapiens, UniProt Q13946); assay: PDE7A [3H]-cAMP scintillation proximity assay (SPA) enzyme inhibition; conditions: for Ki: full length PDE7A in cell lysate, ~25 nM cAMP, Ki from IC50 by Cheng-Prussof equation; for 1C/7A selectivity: ratio PDE1C Ki / PDE7A Ki
T1 construct: cell lysate containing full length PDE7A, PDE7B and PDE1C enzyme; made in house; host or cells: cell lysate
Description: (§1) The ability of the compounds of formula (I) to inhibit PDE7 and PDE1 may be measured using the following assay protocol.
(§2) PDE7A, PDE7B and PDE1C enzymes catalyse the hydrolysis of 3′,5′-cyclic adenosine monophosphate (cAMP) to the 5′ adenosine monophosphate, 5′AMP. In a multiwell plate, PDE enzyme, [^3H]-cAMP and the test compounds, are incubated at room temperature. The incubation is terminated by addition of commercially available yttrium silicate scintillation proximity assay (SPA) beads containing zinc sulphate. The yttrium silicate beads preferentially bind linear nucleotides, thus the product of the enzyme reaction, [^3H]-5′AMP binds to the bead to produce a light signal, which is detected by a scintillation counter. The amount of signal produced directly correlates with the amount of product formed, and thus the activity of the enzyme. The maximum signal is obtained where enzyme and substrate are incubated alone. The background signal is measured from wells either containing no enzyme, or from wells containing a supra-maximal concentration of a known PDE 7A/7B/1C inhibitor. Each purified batch of enzyme is quality controlled and its Km, Vmax and specific activity determined from kinetic studies before use in compound inhibition studies. The inhibition of the enzyme, by a test compound, is calculated relative to the maximum and background responses.
(§3) The compound of Example 75 of WO 02/074754, 5′-carboxypropoxy-8′-chloro-spiro[cyclohexane-1-4′-(3′,4′-dihydro)quinazolin]-2′(1′H)-one (referred to as compound A hereafter) was used as a standard for PDE7A and PDE7B. The compound of Example 32 of WO 02/074754, 4-(8′-chloro-2′-oxo-2′,3′-dihydro-1′H-spiro[cyclohexane-1,4′-quinazolin]-6′-yl)benzoic acid (referred to as compound B hereafter) was used as a standard for PDE1C.
(§4) The optimisation of this assay has been carried out using cell lysate containing full length PDE7A, PDE7B and PDE1C enzyme. The concentration of the enzyme in this cell lysate sample is unknown, so the specific activity of the cell lysate is used as a measure to ensure that the same activity per well is used despite any batch-to-batch variation of concentration/activity.
(§5) PDE7A/7B/1C stock enzyme was prepared and kept at −20° C. in appropriately sized aliquots to reduce the number of freeze/thaw cycles. […] PDE7A is diluted to 1/8000, PDE7B to 1/10000 and PDE1C to 1/200000.
(§6) The final assay [cAMP] of ˜25 nM is required, so ˜50 nM [^3H]-cAMP was prepared. 9 ml of substrate solution was prepared by mixing 10.8 μl of [^3H]-cAMP (available from Amersham) with 8975 μl of assay buffer.
(§7) 1 μl test compound was transferred into a suitable multi-well assay plate immediately prior to reagent assay addition, 14 μl enzyme solution was then added to the assay plate, followed by 15 μl substrate solution (ie: final assay volume 30 μl, with a final screening compound concentration of 1 μM for PDE7A and PDE7B and 10 μM for PDE1C). The plate was then sealed using a plate sealer and incubated at room temperature for 45 min on the plate shaker.
(§8) 30 μl Yttrium Silicate PDE4 SPA beads were then added, ensuring constant stirring of the beads to give even distribution in the assay plate. The plate was then sealed using a plate sealer and incubated at room temperature for 30 mins on the plate shaker. The beads were then allowed to settle for 30 mins, before spinning the plates for 1 min at 200 g.
(§9) The plates were then read on a suitable radioactive counter, for example NXT-TopCount™ (available from Perkin Elmer) using the relevant protocol (30 second read time per well).
(§10) The data was fitted to a sigmoid curve using a least squares algorithm.
(§11) The IC50 value was converted to a value using the Cheng-Prussof equation: […]

[2] = molecular target: T2, PDE7B (Homo sapiens, UniProt Q9NP56); assay: PDE7B [3H]-cAMP scintillation proximity assay (SPA) enzyme inhibition; conditions: for Ki: full length PDE7B in cell lysate, ~25 nM cAMP, Ki from IC50 by Cheng-Prussof equation; for 1C/7B selectivity: ratio PDE1C Ki / PDE7B Ki
T2 construct: cell lysate containing full length PDE7A, PDE7B and PDE1C enzyme; made in house; host or cells: cell lysate
T2 sequence (Q9NP56 whole entry): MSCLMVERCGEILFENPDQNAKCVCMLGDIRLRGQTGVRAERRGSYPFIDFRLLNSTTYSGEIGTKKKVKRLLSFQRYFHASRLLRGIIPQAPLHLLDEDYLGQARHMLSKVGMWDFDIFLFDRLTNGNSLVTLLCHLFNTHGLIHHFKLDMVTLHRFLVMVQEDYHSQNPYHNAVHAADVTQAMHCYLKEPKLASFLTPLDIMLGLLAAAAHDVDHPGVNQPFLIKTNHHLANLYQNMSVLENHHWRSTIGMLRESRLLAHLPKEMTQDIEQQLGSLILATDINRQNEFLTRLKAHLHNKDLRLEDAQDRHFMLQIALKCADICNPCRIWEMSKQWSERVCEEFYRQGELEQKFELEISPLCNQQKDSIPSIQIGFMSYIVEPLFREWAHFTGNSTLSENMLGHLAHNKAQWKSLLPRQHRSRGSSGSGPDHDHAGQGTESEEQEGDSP
Description: as §1, §2, §3, §4, §5, §6, §7, §8, §9, §10, §11

[3] = molecular target: T3, PDE1C (Homo sapiens, UniProt Q14123); assay: PDE1C [3H]-cAMP scintillation proximity assay (SPA) enzyme inhibition; conditions: full length PDE1C in cell lysate; 75 nM cAMP; Ki from IC50 by Cheng-Prussof equation
T3 construct: cell lysate containing full length PDE7A, PDE7B and PDE1C enzyme; made in house; host or cells: cell lysate
T3 sequence (Q14123 whole entry): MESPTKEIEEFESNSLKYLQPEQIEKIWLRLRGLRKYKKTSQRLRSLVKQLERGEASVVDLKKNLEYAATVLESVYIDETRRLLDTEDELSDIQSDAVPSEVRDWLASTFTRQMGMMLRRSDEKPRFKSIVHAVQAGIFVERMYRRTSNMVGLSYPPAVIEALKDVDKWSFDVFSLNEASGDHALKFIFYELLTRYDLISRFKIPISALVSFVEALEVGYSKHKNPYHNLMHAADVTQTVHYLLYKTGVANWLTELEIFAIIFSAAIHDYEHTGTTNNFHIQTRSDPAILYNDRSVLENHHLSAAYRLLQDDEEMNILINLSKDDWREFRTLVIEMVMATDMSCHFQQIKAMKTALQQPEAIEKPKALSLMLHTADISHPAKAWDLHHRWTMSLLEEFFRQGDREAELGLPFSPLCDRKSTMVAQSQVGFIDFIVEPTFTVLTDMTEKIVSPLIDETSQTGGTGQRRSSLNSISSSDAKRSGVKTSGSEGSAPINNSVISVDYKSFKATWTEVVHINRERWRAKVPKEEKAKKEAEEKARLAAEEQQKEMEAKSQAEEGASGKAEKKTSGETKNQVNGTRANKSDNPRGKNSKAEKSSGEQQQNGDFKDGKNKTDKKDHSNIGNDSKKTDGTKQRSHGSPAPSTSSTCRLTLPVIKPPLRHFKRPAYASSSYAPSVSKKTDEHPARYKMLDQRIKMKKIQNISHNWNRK
Description: as §1, §2, §3, §4, §5
The final assay [cAMP]=75 nM therefore the required solution [cAMP]=0.15 μM (1/2 dilution in assay plate)
as §7, §8, §9, §10, §11

T1 sequence (Q13946 whole entry): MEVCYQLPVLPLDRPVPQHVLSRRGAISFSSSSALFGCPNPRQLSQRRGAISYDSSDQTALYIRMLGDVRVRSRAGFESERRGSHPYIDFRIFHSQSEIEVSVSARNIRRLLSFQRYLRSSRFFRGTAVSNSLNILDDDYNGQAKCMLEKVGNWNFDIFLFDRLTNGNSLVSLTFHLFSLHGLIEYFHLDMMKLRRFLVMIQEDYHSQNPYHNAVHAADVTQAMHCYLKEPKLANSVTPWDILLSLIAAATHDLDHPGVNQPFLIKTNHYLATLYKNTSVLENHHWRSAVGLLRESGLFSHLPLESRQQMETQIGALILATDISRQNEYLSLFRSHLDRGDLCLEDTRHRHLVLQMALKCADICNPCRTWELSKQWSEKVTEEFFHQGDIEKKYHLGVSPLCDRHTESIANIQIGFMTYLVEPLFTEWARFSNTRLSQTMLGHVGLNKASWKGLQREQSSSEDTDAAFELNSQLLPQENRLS

Row | Ki [1] [nM] | 1C/7A selectivity [1] | Ki [2] [nM] | 1C/7B selectivity [2] | Ki [3] [nM] | SMILES
1 | < 0.15 | >245 | 0.8 | 48 | 37 | O=C1Nc2c(Cl)ccc(Oc3ccccc3-c3nnn[nH]3)c2C2(CCCCC2)N1 [Example 17, 8′-chloro-5′-[2-(1H-tetrazol-5-yl)phenoxy]-1′H-spiro[cyclohexane-1,4′-quinazolin]-2′(3′H)-one]
2 | 1.1 | 85 | 1.6 | 59 | 94 | O=C1Nc2c(Cl)ccc(Oc3c(F)cccc3-c3noc(=O)[nH]3)c2C2(CCCCC2)N1 [Example 18, 8′-chloro-5′-[2-fluoro-6-(5-oxo-4,5-dihydro-1,2,4-oxadiazol-3-yl)phenoxy]-1′H-spiro[cyclohexane-1,4′-quinazolin]-2′(3′H)-one]
3 | 0.94 | 183 | 1.5 | 115 | 172 | O=C1Nc2c(Cl)ccc(Oc3c(F)cccc3-c3n[nH]c(=O)[nH]3)c2C2(CCCCC2)N1 [Example 19, 8′-chloro-5′-[2-fluoro-6-(5-oxo-4,5-dihydro-1H-1,2,4-triazol-3-yl)phenoxy]-1′H-spiro[cyclohexane-1,4′-quinazolin]-2′(3′H)-one]
4 | 2.3 | 290 | 7 | 94 | 657 | CS(=O)(=O)NC(=O)c1cccc(F)c1Oc1ccc(Cl)c2c1C1(CCCCC1)NC(=O)N2 [Example 20, 2-[(8′-chloro-2′-oxo-2′,3′-dihydro-1′H-spiro[cyclohexane-1,4′-quinazolin]-5′-yl)oxy]-3-fluoro-N-(methylsulfonyl)benzamide]
5 | 0.2 | 311 | 2.4 | 25 | 62 | O=C1Nc2c(Cl)ccc(Oc3c(F)cccc3NS(=O)(=O)C(F)(F)F)c2C2(CCCCC2)N1 [Example 21, N-{2-[(8′-chloro-2′-oxo-2′,3′-dihydro-1′H-spiro[cyclohexane-1,4′-quinazolin]-5′-yl)oxy]-3-fluorophenyl}-1,1,1-trifluoromethanesulfonamide]
6 | 0.98 | 160 | 11 | 14 | 157 | O=C(O)COc1ccc(Oc2ccc(Cl)c3c2C2(CCCCC2)NC(=O)N3)cc1 [Example 24, {4-[(8′-chloro-2′-oxo-2′,3′-dihydro-1′H-spiro[cyclohexane-1,4′-quinazolin]-5′-yl)oxy]phenoxy}acetic acid]

Row | SMILES | Ki [1] [nM] | 1C/7A selectivity [1] | Ki [2] [nM] | 1C/7B selectivity [2] | Ki [3] [nM]
7 | O=C(O)COc1ccccc1Oc1ccc(Cl)c2c1C1(CCCCC1)NC(=O)N2 [Example 23, {2-[(8′-chloro-2′-oxo-2′,3′-dihydro-1′H-spiro[cyclohexane-1,4′-quinazolin]-5′-yl)oxy]phenoxy}acetic acid] | 0.48 | 121 | 1.9 | 31 | 58

From patent publication US20100216823A1 (Pfizer Inc., priority 2007, published 2010)
